# pIC50: −log10 of the molar value.
# Molecular target: histone deacetylase (HDAC)
# Experiment: Inhibition of Histone Deacetylase Enzymatic Activity
# Assay type: biochemical
# Settings: substrate Boc-Lys(Ac)-AMC, Fluor-de-Lys developer, 37° C., 20 min; against one or more of HDAC-1 to HDAC-11, SirT1 to SirT7 (isoform not given); read-out: HDAC Inhibitory Activity (IC50)
# Protocol: The following protocol is used to assay the compounds of the invention. In the assay, the buffer used is 25 mM HEPES, pH 8.0, 137 mM NaCl, 2.7 mM KCl, 1 mM MgCl2 and the substrate is Boc-Lys(Ac)-AMC in a 50 mM stock solution in DMSO. The enzyme stock solution is 4.08 μg/mL in buffer.
# The compounds are pre-incubated (2 μl in DMSO diluted to 13 μl in buffer for transfer to assay plate) with enzyme (20 μl of 4.08 μg/mL) for 10 min at room temperature (35 μl pre-incubation volume). The mixture is pre-incubated for 5 min at room temperature. The reaction is started by bringing the temperature to 37° C. and adding 16 μl substrate. Total reaction volume is 50 μl. […] A plate is incubated in the dark for 10 min at room temperature before reading (λEX=360 nm, λEm=470 nm, Cutoff filter at 435 nm).
# In the table, “A” indicates inhibitory activity at a concentration of <0.05 μM; “B” indicates inhibitory activity at a concentration >0.05 μM but <0.5 μM, “C” indicates inhibitory activity at >0.5 μM but <2 μM and “D” indicates inhibitory activity at a concentration of >2 μM but <10 μM.
row,SMILES,pIC50
1,"CC(C)[C@@H]1Nc2ccc(NC(=O)CCCCCCC(=O)Nc3ccccc3N)cc2NC1=O [Compound 23a, N1-(2-Aminophenyl)-N8—((S)-1,2,3,4-tetrahydro-2-isopropyl-3-oxoquinoxalin-6-yl)octanediamide]",5.00 to 5.70
2,"CC(C)[C@@H]1Nc2ccc(NC(=O)CCCCCCC(=O)NO)cc2NC1=O [Compound 24a, N1—((S)-1,2,3,4-Tetrahydro-2-isopropyl-3-oxoquinoxalin-6-yl)-N8-hydroxyoctanediamide]",6.30 to 7.30
3,"CC(C)[C@H]1Nc2ccc(NC(=O)CCCCCCC(=O)NO)cc2NC1=O [Compound 24e, N1—((R)-1,2,3,4-Tetrahydro-2-isopropyl-3-oxoquinoxalin-6-yl)-N8-hydroxyoctanediamide]",> 7.30
4,"O=C(CCCCCCC(=O)Nc1ccc2c(c1)NC(=O)[C@@H](Cc1c[nH]c3ccccc13)N2)NO [Compound 24f, N1—((R)-2-((1H-Indol-3-yl)methyl)-1,2,3,4-tetrahydro-3-oxoquinoxalin-6-yl)-N8-hydroxyoctanediamide]",> 7.30
5,"COc1ccc(CN2c3ccccc3NC(=O)[C@H]2CCC(=O)CCC(=O)NO)cc1 [Compound 43, 6-((R)-1-(4-methoxybenzyl)-1,2,3,4-tetrahydro-3-oxoquinoxalin-2-yl)-N-hydroxy-4-oxy-hexanamide]",5.00 to 5.70
6,"COc1ccc(CN2c3ccccc3NC(=O)C2CCCCCC(=O)Nc2cc(-c3cccs3)ccc2N)cc1 (stereo not drawn) [Compound 49, 6-(1-(4-methoxybenzyl)-1,2,3,4-tetrahydro-3-oxoquinoxalin-2-yl)-N-(2-amino-5-(thiophen-2-yl)phenyl)hexanamide]",6.30 to 7.30
7,"O=C(NO)c1ccc(CN2c3ccccc3NC(=O)[C@@H]2Cc2cccs2)cc1 [Compound 54a1, 4-(((S)-2,3-Dihydro-2-oxo-3-((thiophen-2-yl)methyl)quinoxalin-4(1H)-yl)methyl)-N-hydroxybenzamide]",6.30 to 7.30
8,"O=C(NO)c1ccc(CN2c3ccccc3NC(=O)[C@H]2Cc2cccs2)cc1 [Compound 54a2, 4-(((R)-2,3-Dihydro-2-oxo-3-((thiophen-2-yl)methyl)quinoxalin-4(1H)-yl)methyl)-N-hydroxybenzamide]",> 7.30
9,"O=C1CN(Cc2ccc(C(=O)NO)cc2)c2ccccc2N1 [Compound 54b1, N-hydroxy-4-((3-oxo-3,4-dihydroquinoxalin-1(2H)-yl)methyl)-benzamide]",> 7.30
10,"O=C(NO)c1ccc(CN2c3ccccc3NC(=O)[C@H]2Cc2c[nH]c3ccccc23)cc1 [Compound 54b2, (R)-4-((2-((1H-indol-3-yl)methyl)-3-oxo-3,4-dihydroquinoxalin-1(2H)-yl)methyl)-N-hydroxybenzamide]",> 7.30
11,"O=C(NO)c1ccc(CN2c3ccccc3NC(=O)[C@@H]2Cc2c[nH]c3ccccc23)cc1 [Compound 54b3, (S)-4-((2-((1H-indol-3-yl)methyl)-3-oxo-3,4-dihydroquinoxalin-1(2H)-yl)methyl)-N-hydroxybenzamide]",> 7.30

# Now from value to compound:
row,pIC50,SMILES
1,6.30 to 7.30,"COc1ccc(CN2c3ccc(NC(=O)CCCCCCC(=O)NO)cc3NC(=O)[C@H]2C(C)C)cc1 [Compound 26e, N1—((R)-1-(4-Methoxybenzyl)-1,2,3,4-tetrahydro-2-isopropyl-3-oxoquinoxalin-6-yl)-N8-hydroxyoctanediamide]"
2,6.30 to 7.30,"CC(C)[C@@H]1Nc2ccc(NC(=O)CCCCCCC(=O)c3ncco3)cc2NC1=O [Compound 29a, N—((S)-1,2,3,4-Tetrahydro-2-isopropyl-3-oxoquinoxalin-6-yl)-8-(oxazol-2-yl)-8-oxooctanamide]"
3,6.30 to 7.30,"COc1ccc(CN2c3ccccc3NC(=O)C2CCCCCC(=O)NO)cc1 (stereo not drawn) [Compound 47a, 6-(1-(4-methoxybenzyl)-1,2,3,4-tetrahydro-3-oxoquinoxalin-2-yl)-N-hydroxyhexanamide]"
4,5.00 to 5.70,"COc1ccc(CN2c3ccccc3NC(=O)C2CCCCCC(=O)Nc2ccccc2N)cc1 (stereo not drawn) [Compound 47b, 6-(1-(4-methoxybenzyl)-1,2,3,4-tetrahydro-3-oxoquinoxalin-2-yl)-N-(2-aminophenyl)hexanamide]"
